Test results as given in patent US20130310332A1, “MAPLE TREE-DERIVED PRODUCTS AND USES THEREOF” (UNIVERSITY OF RHODE ISLAND, priority 2010, published 2013).
Like-named read-outs stand apart in the source and are kept apart here.

What was measured:
[1] = DPPH radical scavenging (antioxidant) assay; conditions: compounds from red maple stems
Procedure: The DPPH radical scavenging activity of ascorbic acid (vitamin C) and the synthetic commercial antioxidant, butylated hydroxytoluene (BHT), are also assayed as positive controls.
The DPPH radical scavenging activity of ascorbic acid (vitamin C) and the synthetic commercial antioxidant, butylated hydroxytoluene (BHT), are also assayed as positive controls. […] Absorbance is read after 30 min at 515 nm, and the scavenging capacity (SC) is calculated as SC %=(A0−A1/A0)×100, where A0 is the absorbance of the reagent blank and A1 is the absorbance of test samples. All tests are performed in triplicate.

HCT-116 cells = test: MTS antiproliferative assay, HCT-116; type: cell-based; conditions: Homo sapiens
Procedure: (§1) The extracts are solubilized in DMSO and normalized based on their phenolic content to evaluate their antiproliferative activities against the colon cell lines. […] Caco-2 cells are grown in EMEM medium supplemented with 10% v/v fetal bovine serum, 1% v/v nonessential amino acids, 1% v/v L-glutamine and 1% v/v antibiotic solution (Sigma). HT-29 and HCT-116 cells are grown in McCoy's 5a medium supplemented with 10% v/v fetal bovine serum, 1% v/v nonessential amino acids, 2% v/v HEPES and 1% v/v antibiotic solution. CCD-18Co cells are grown in EMEM medium supplemented with 10% v/v fetal bovine serum, 1% v/v nonessential amino acids, 1% v/v L-glutamine and 1% v/v antibiotic solution and are used from PDL between 26 to 35 for all experiments. […] The pH of the culture medium is determined using pH indicator paper (pHydrion™ Brilliant, pH 5.5-9.0, Micro Essential Laboratory, NY, USA) inside the incubator. Cells are counted using a hemacytometer and are plated at 3,000-5,000 cells per well, in a 96-well format for 24 or 48 h prior to sample treatment depending on the cell line. […] Control cells are also run in parallel and subjected to the same changes in medium with 0.5% DMSO.
(§2) At the end of 48 or 72 h of treatment with serially diluted test samples, 20 μl of the MTS reagent, in combination with the electron coupling agent, phenazine methosulfate, is added to the wells and cells are incubated at 37° C. in a humidified incubator for 3 h. Absorbance at 490 nm (OD490) is monitored with a spectrophotometer (SpectraMax M2, Molecular Devices Corp., operated by SoftmaxPro v.4.6 software, Sunnyvale, Calif., USA), to obtain the number of cells relative to control populations. 20 μl of etoposide 4 mg/ml (Sigma) is assayed as a negative control of proliferation. […] Data are presented as the mean±S.D. of three separated experiments on each cell line.

Caco-2 cells = test: MTS antiproliferative assay, Caco-2; type: cell-based; conditions: Homo sapiens
Procedure: The extracts are solubilized in DMSO and normalized based on their phenolic content to evaluate their antiproliferative activities against the colon cell lines. […] CCD-18Co cells are grown in EMEM medium supplemented with 10% v/v fetal bovine serum, 1% v/v nonessential amino acids, 1% v/v L-glutamine and 1% v/v antibiotic solution and are used from PDL between 26 to 35 for all experiments. […] The pH of the culture medium is determined using pH indicator paper (pHydrion™ Brilliant, pH 5.5-9.0, Micro Essential Laboratory, NY, USA) inside the incubator. […] Control cells are also run in parallel and subjected to the same changes in medium with 0.5% DMSO. […] At the end of 48 or 72 h of treatment with serially diluted test samples, 20 μl of the MTS reagent, in combination with the electron coupling agent, phenazine methosulfate, is added to the wells and cells are incubated at 37° C. in a humidified incubator for 3 h. […] Data are presented as the mean±S.D. of three separated experiments on each cell line.

HT-29 cells = test: MTS antiproliferative assay, HT-29; type: cell-based; conditions: Homo sapiens
Procedure: as §1, §2

CCD-18Co cells = test: MTS antiproliferative assay, normal colon CCD-18Co; type: cell-based; conditions: Homo sapiens
Procedure: as §1, §2

α-glucosidase = α-glucosidase (Saccharomyces cerevisiae, UniProt P53341); test: α-Glucosidase inhibition, red maple stem compounds (Example 4); type: biochemical; conditions: for α-glucosidase inhibitory activity (in words): by number of galloyl groups
[2] = HCT-116, read-out: IC50 HCT-116 48 h, ginnalins, 48 h treatment
[3] = HCT-116, ginnalins, 72 h treatment, read-out: IC50 HCT-116 72 h
[4] = Caco-2, read-out: IC50 Caco-2 48 h, ginnalins, 48 h treatment
[5] = Caco-2, ginnalins, 72 h treatment, read-out: IC50 Caco-2 72 h
[6] = HT-29, read-out: IC50 HT-29 48 h, ginnalins, 48 h treatment
[7] = HT-29, ginnalins, 72 h treatment, read-out: IC50 HT-29 72 h
[8] = ginnalins, 72 h treatment, normal colon cells, read-out: IC50 CCD-18Co 72 h

Chain of α-glucosidase (P53341 whole entry): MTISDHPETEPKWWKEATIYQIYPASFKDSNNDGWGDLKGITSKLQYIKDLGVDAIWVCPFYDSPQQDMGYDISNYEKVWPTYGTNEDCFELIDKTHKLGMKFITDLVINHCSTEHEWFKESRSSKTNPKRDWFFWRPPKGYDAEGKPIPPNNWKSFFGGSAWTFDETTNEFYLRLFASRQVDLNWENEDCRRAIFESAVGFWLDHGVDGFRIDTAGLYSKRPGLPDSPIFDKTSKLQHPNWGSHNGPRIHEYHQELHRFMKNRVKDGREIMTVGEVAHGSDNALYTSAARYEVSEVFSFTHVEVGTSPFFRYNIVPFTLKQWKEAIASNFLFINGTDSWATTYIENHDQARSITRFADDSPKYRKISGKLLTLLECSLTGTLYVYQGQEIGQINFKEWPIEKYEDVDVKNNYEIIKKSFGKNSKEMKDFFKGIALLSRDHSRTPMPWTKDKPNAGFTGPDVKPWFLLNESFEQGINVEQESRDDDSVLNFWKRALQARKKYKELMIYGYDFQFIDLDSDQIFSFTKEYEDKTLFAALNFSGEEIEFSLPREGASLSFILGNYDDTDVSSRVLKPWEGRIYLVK

| Compound | IC50 [1] | α-glucosidase inhibitory activity (in words) (α-glucosidase) | inhibitors of α-glucosidase enzyme, concentration dependence (α-glucosidase) | further results |
| --- | --- | --- | --- | --- |
| Cc1cc(C(C)(C)C)c(O)c(C(C)(C)C)c1 [BHT, butylated hydroxytoluene, reference compound] | 1634 ± 16.1 µM |  |  |  |
| COc1cc([C@@H]2c3cc4c(cc3[C@@H](O[C@@H]3O[C@@H]5CO[C@@H](C)O[C@H]5[C@H](O)[C@H]3O)[C@H]3COC(=O)[C@H]23)OCO4)cc(OC)c1O [Etoposide, reference compound] |  |  |  | IC50 (HCT-116 cells; HCT-116, MTS assay control, read-out: IC50 HCT116 (control of proliferation)): 10 to 20 µM; IC50 (Caco-2 cells; Caco-2, MTS assay control, read-out: IC50 Caco-2 (control of proliferation)): 10 to 20 µM; IC50 (HT-29 cells; HT-29, MTS assay control, read-out: IC50 HT29 (control of proliferation)): 10 to 20 µM; IC50 (CCD-18Co cells; MTS assay control, read-out: IC50 CCD-18Co (control of proliferation)): 30 to 40 µM |
| O=C(O[C@H]1[C@H](O)[C@@H](CO)OC[C@@H]1O)c1cc(O)c(O)c(O)c1 [RMS 4, 3-O-galloyl-1,5-anhydro-D-glucitol] | 48 ± 1.11 µM | do not show any activity |  |  |
| O=C(O[C@H]1[C@H](O)[C@@H](O)CO[C@@H]1CO)c1cc(O)c(O)c(O)c1 [RMS 5, 4-O-galloyl-1,5-anhydro-D-glucitol] | 45.6 ± 1.45 µM | do not show any activity |  |  |
| O=C(O[C@H]1[C@H](O)[C@@H](OC(=O)c2cc(O)c(O)c(O)c2)CO[C@@H]1CO)c1cc(O)c(O)c(O)c1 [RMS 7, 2,4-di-O-galloyl-1,5-anhydro-D-glucitol] | 18.6 ± 0.77 µM | moderate α-glucosidase inhibitory activity | inhibitors of α-glucosidase enzyme in a concentration-dependent manner |  |
| O=C(O[C@H]1[C@H](O)[C@@H](CO)OC[C@@H]1OC(=O)c1cc(O)c(O)c(O)c1)c1cc(O)c(O)c(O)c1 [RMS 9, 2,3-di-O-galloyl-1,5-anhydro-D-glucitol] | 18.8 ± 0.77 µM | moderate α-glucosidase inhibitory activity | inhibitors of α-glucosidase enzyme in a concentration-dependent manner |  |
| O=C(OC[C@H]1OC[C@H](O)[C@@H](O)[C@@H]1O)c1cc(O)c(O)c(O)c1 [RMS 12, 6-O-galloyl-1,5-anhydro-D-glucitol] | 32.7 ± 0.48 µM | do not show any activity |  | IC50 (HCT-116 cells; [2]): 25.1 ± 1.8 µg/mL; IC50 (HCT-116 cells; [3]): 20 ± 2 µg/mL; IC50 (Caco-2 cells; [4]): 31.1 ± 1.9 µg/mL; IC50 (Caco-2 cells; [5]): 22.6 ± 1.9 µg/mL; IC50 (HT-29 cells; [6]): 36.2 ± 1.5 µg/mL; IC50 (HT-29 cells; [7]): 27.3 ± 0.6 µg/mL; IC50 (CCD-18Co cells; [8]): 47.1 ± 5.3 µg/mL |
| O=C(O)c1cc(O)c(O)c(O)c1 [RMS 14, gallic acid] | 20.4 ± 0.34 µM |  |  |  |
| COC(=O)c1cc(OC)c(O)c(OC)c1 [RMS 15, Methyl 3,5-dimethoxy-4-hydroxybenzoate] | 991 ± 80.6 µM |  |  |  |
| COC(=O)c1cc(O)c(O)c(O)c1 [RMS 17, Methyl gallate] | 16.5 ± 0.26 µM |  | inhibitors of α-glucosidase enzyme in a concentration-dependent manner |  |
| O=C(OC[C@H]1OC[C@H](O)[C@@H](OC(=O)c2cc(O)c(O)c(O)c2)[C@@H]1O)c1cc(O)c(O)c(O)c1 [RMS 18, 3,6-di-O-galloyl-1,5-anhydro-D-glucitol] | 18.5 ± 0.44 µM | moderate α-glucosidase inhibitory activity | inhibitors of α-glucosidase enzyme in a concentration-dependent manner |  |
| O=C(OC[C@H]1OC[C@H](OC(=O)c2cc(O)c(O)c(O)c2)[C@@H](O)[C@@H]1OC(=O)c1cc(O)c(O)c(O)c1)c1cc(O)c(O)c(O)c1 [RMS 24, 2,4,6-tri-O-galloyl-1,5-anhydro-D-glucitol] | 13.1 µM | powerful α-glucosidase inhibitory activity | inhibitors of α-glucosidase enzyme in a concentration-dependent manner |  |
| O=C(OC[C@H]1OC[C@H](OC(=O)c2cc(O)c(O)c(O)c2)[C@@H](O)[C@@H]1O)c1cc(O)c(O)c(O)c1 [RMS 26, 2,6-di-O-galloyl-1,5-anhydro-D-glucitol] | 17.7 ± 0.21 µM | moderate α-glucosidase inhibitory activity | inhibitors of α-glucosidase enzyme in a concentration-dependent manner | IC50 (HCT-116 cells; [2]): 21.5 ± 1.6 µg/mL; IC50 (HCT-116 cells; [3]): 16.3 ± 2.1 µg/mL; IC50 (Caco-2 cells; [4]): 28.8 ± 1.8 µg/mL; IC50 (Caco-2 cells; [5]): 21.7 ± 1 µg/mL; IC50 (HT-29 cells; [6]): 31 ± 2.6 µg/mL; IC50 (HT-29 cells; [7]): 24.1 ± 1.3 µg/mL; IC50 (CCD-18Co cells; [8]): 46.6 ± 3.6 µg/mL |
| O=C(O[C@H]1CO[C@H](CO)[C@@H](O)[C@@H]1O)c1cc(O)c(O)c(O)c1 [RMS 27, 2-O-galloyl-1,5-anhydro-D-glucitol] | 30.5 ± 0.8 µM | do not show any activity |  | IC50 (HCT-116 cells; [2]): 27 ± 1.9 µg/mL; IC50 (HCT-116 cells; [3]): 22.3 ± 2.4 µg/mL; IC50 (Caco-2 cells; [4]): 35 ± 1.4 µg/mL; IC50 (Caco-2 cells; [5]): 29.8 ± 1.2 µg/mL; IC50 (HT-29 cells; [6]): 33.8 ± 2 µg/mL; IC50 (HT-29 cells; [7]): 30.1 ± 1.3 µg/mL |
| COC(=O)c1cc(O)c(O)c(OC)c1 [RMS 28, 3,4-dihydroxy-5-methoxybenzoic acid methyl ester] | 116 ± 4.98 µM |  |  |  |
| O=C1O[C@H]([C@@H](O)CO)C(O)=C1O [Vitamin C, ascorbic acid, reference compound] | 71 ± 1.61 µM |  |  |  |
